Measurements published in PubChem BioAssay AID1963825 (Molecular Pharmacology Branch, DTP, NCI, 2024).

Assay: Anticancer human tumor 997537-175-T-J1-PDC patient-derived colon adenocarcinoma cell line growth inhibition [POLQ]
Conditions: 997537-175-T-J1-PDC complex spheroid viability, combination with POLQ inhibitors; for IC50: curve of first compound; for viability, T/C: stronger effect = lower value
How it was run: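 Growth inhibition in 3D: complex spheroids (tumor PDC, HUVEC, MSC) treated with POLQ inhibitor combinations; where Cmax unknown, highest tested concentration 10 microM, except SN-38 at 1 microM.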

[1] = second compound 0.0316 µM, first compound 0.0316 µM
[2] = second compound 0.0316 µM, first compound 0.1 µM
[3] = second compound 0.0316 µM, first compound 0.316 µM
[4] = second compound 0.0316 µM, first compound 1 µM
[5] = second compound 0.1 µM, first compound 0.0316 µM
[6] = second compound 0.1 µM, first compound 0.1 µM
[7] = second compound 0.1 µM, first compound 0.316 µM
[8] = second compound 0.1 µM, first compound 1 µM
[9] = second compound 0.316 µM, first compound 0.0316 µM
[10] = second compound 0.316 µM, first compound 0.1 µM
[11] = second compound 0.316 µM, first compound 0.316 µM
[12] = second compound 0.316 µM, first compound 1 µM
[13] = second compound 1 µM, first compound 0.0316 µM
[14] = second compound 1 µM, first compound 0.1 µM
[15] = second compound 1 µM, first compound 0.316 µM
[16] = second compound 1 µM, first compound 1 µM
[17] = second compound 3.16 µM, first compound 0.0316 µM
[18] = second compound 3.16 µM, first compound 0.1 µM
[19] = second compound 3.16 µM, first compound 0.316 µM
[20] = second compound 3.16 µM, first compound 1 µM
[21] = second compound 10 µM, first compound 0.0316 µM
[22] = second compound 10 µM, first compound 0.1 µM
[23] = second compound 10 µM, first compound 0.316 µM
[24] = second compound 10 µM, first compound 1 µM
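Note: luminescence signal used as a surrogate for viable cells; spheroids exposed to drugs for seven days before readout.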

## CCCS(=O)(=O)Nc1ccc(F)c(C(=O)c2c[nH]c3ncc(-c4ccc(Cl)cc4)cc23)c1F + Nc1ccc(C#CCN(C(=O)Cc2ncc(C(F)(F)F)cc2C(F)(F)F)c2ccc(F)cc2)nn1
Second compound 0.0316 µM
  IC50: 5510 nM
Second compound 0.1 µM
  IC50: 7310 nM
Second compound 0.316 µM
  IC50: 5970 nM
Second compound 1 µM
  IC50: 5250 nM
Second compound 3.16 µM
  IC50: 6000 nM
Second compound 10 µM
  IC50: 6760 nM
[1]
  viability, T/C: 81.8%
[2]
  viability, T/C: 88.9%
[3]
  viability, T/C: 80.7%
[4]
  viability, T/C: 70.3%
Second compound 0.0316 µM, first compound 3.16 µM
  viability, T/C: 74.2%
Second compound 0.0316 µM, first compound 10 µM
  viability, T/C: 27.2%
[5]
  viability, T/C: 101%
[6]
  viability, T/C: 86.5%
[7]
  viability, T/C: 80.9%
[8]
  viability, T/C: 71.3%
Second compound 0.1 µM, first compound 3.16 µM
  viability, T/C: 82.8%
Second compound 0.1 µM, first compound 10 µM
  viability, T/C: 37.9%
[9]
  viability, T/C: 90.3%
[10]
  viability, T/C: 88.3%
[11]
  viability, T/C: 78.4%
[12]
  viability, T/C: 71.9%
Second compound 0.316 µM, first compound 3.16 µM
  viability, T/C: 79.3%
Second compound 0.316 µM, first compound 10 µM
  viability, T/C: 26.4%
[13]
  viability, T/C: 84.9%
[14]
  viability, T/C: 96.4%
[15]
  viability, T/C: 84.2%
[16]
  viability, T/C: 86.4%
Second compound 1 µM, first compound 3.16 µM
  viability, T/C: 66.8%
Second compound 1 µM, first compound 10 µM
  viability, T/C: 28.5%
[17]
  viability, T/C: 85.5%
[18]
  viability, T/C: 89.3%
[19]
  viability, T/C: 89.5%
[20]
  viability, T/C: 79.3%
Second compound 3.16 µM, first compound 3.16 µM
  viability, T/C: 73.1%
Second compound 3.16 µM, first compound 10 µM
  viability, T/C: 32.6%
[21]
  viability, T/C: 104%
[22]
  viability, T/C: 83.5%
[23]
  viability, T/C: 94%
[24]
  viability, T/C: 77.5%
Second compound 10 µM, first compound 3.16 µM
  viability, T/C: 71.4%
Second compound 10 µM, first compound 10 µM
  viability, T/C: 39.9%

## COc1cccc(OCCCN)c1-c1cc(Nc2cnc(C#N)cn2)n[nH]1 + Nc1ccc(C#CCN(C(=O)Cc2ncc(C(F)(F)F)cc2C(F)(F)F)c2ccc(F)cc2)nn1
Second compound 0.0316 µM
  IC50: 110 nM
Second compound 0.1 µM
  IC50: 72 nM
Second compound 0.316 µM
  IC50: 54.4 nM
Second compound 1 µM
  IC50: 21.3 nM
Second compound 3.16 µM
  IC50: 48.8 nM
Second compound 10 µM
  IC50: 20.9 nM
Second compound 0.0316 µM, first compound 0.00316 µM
  viability, T/C: 100%
Second compound 0.0316 µM, first compound 0.01 µM
  viability, T/C: 90.2%
[1]
  viability, T/C: 70.5%
[2]
  viability, T/C: 42.3%
[3]
  viability, T/C: 44%
[4]
  viability, T/C: 17.7%
Second compound 0.1 µM, first compound 0.00316 µM
  viability, T/C: 89.1%
Second compound 0.1 µM, first compound 0.01 µM
  viability, T/C: 96.8%
[5]
  viability, T/C: 70.5%
[6]
  viability, T/C: 43%
[7]
  viability, T/C: 22.2%
[8]
  viability, T/C: 23.2%
Second compound 0.316 µM, first compound 0.00316 µM
  viability, T/C: 103%
Second compound 0.316 µM, first compound 0.01 µM
  viability, T/C: 89.5%
[9]
  viability, T/C: 61.4%
[10]
  viability, T/C: 40.5%
[11]
  viability, T/C: 18%
[12]
  viability, T/C: 41.9%
Second compound 1 µM, first compound 0.00316 µM
  viability, T/C: 89.8%
Second compound 1 µM, first compound 0.01 µM
  viability, T/C: 61.1%
[13]
  viability, T/C: 50.3%
[14]
  viability, T/C: 21.8%
[15]
  viability, T/C: 40.6%
[16]
  viability, T/C: 36.2%
Second compound 3.16 µM, first compound 0.00316 µM
  viability, T/C: 88.4%
Second compound 3.16 µM, first compound 0.01 µM
  viability, T/C: 90.8%
[17]
  viability, T/C: 65.8%
[18]
  viability, T/C: 24.2%
[19]
  viability, T/C: 20.8%
[20]
  viability, T/C: 21.1%
Second compound 10 µM, first compound 0.00316 µM
  viability, T/C: 84%
Second compound 10 µM, first compound 0.01 µM
  viability, T/C: 85.1%
[21]
  viability, T/C: 30.4%
[22]
  viability, T/C: 24.9%
[23]
  viability, T/C: 34.1%
[24]
  viability, T/C: 20.5%
